Experimental data from patent US11752188B2, “Compositions and methods for nutritional supplements” (DailyColors Health Inc., priority 2020, dated 2023).
Like-named read-outs stand apart in the source and are kept apart here. One block for each compound: values may come before it.

Assays:
recombinant human IDO2 = molecular target: T1, recombinant human IDO2 (Homo sapiens, UniProt Q6ZQW0); assay: IDO2 UV absorbance assay (L-tryptophan, 321 nm); format: biochemical; conditions: for Absorbance (net) Repeat 1 / Absorbance (net) Repeat 2: Table 46
T1 construct: purchased 71194
T1 sequence (Q6ZQW0 1-407): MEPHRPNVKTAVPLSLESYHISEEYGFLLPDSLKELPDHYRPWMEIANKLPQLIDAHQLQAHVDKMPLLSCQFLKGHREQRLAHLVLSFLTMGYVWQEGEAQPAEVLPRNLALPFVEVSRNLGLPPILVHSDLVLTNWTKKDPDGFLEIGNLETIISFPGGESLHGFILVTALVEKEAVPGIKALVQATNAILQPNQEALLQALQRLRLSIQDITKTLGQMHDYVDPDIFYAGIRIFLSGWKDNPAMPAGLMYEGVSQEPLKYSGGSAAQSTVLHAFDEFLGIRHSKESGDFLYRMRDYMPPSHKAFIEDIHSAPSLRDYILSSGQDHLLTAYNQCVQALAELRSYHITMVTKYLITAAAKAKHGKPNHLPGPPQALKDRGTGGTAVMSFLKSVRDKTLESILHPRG

SIRT1 = molecular target: T2, SIRT1 (Homo sapiens, UniProt Q96EB6); assay: SIRT1 fluorogenic HDAC substrate activity assay; format: biochemical
T2 construct: purchased 50012
T2 sequence (Q96EB6 1-747): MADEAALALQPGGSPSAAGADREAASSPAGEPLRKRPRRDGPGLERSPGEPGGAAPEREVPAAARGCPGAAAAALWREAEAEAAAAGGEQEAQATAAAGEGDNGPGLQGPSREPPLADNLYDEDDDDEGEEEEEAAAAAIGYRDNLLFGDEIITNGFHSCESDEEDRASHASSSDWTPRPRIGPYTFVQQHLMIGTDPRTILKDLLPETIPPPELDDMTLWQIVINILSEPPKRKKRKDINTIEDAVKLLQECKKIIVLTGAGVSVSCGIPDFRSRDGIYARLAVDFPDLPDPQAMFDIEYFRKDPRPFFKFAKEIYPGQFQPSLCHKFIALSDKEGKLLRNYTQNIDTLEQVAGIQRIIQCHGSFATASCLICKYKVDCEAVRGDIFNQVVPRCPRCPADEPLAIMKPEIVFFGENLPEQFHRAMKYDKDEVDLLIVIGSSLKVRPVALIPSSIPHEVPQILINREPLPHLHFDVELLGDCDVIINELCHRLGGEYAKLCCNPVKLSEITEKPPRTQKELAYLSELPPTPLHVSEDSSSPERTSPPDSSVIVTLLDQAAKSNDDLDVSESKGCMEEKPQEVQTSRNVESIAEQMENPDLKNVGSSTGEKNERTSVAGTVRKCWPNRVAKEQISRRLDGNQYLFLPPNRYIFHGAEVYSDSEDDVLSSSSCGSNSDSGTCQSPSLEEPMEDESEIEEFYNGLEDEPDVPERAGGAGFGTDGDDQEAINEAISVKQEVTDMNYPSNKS
Description: Assay Conditions: The sample was dissolved in 70% EtOH. The serial dilution of the compound was first performed in 70% EtOH with the highest concentration at 1%.
The enzymatic reactions for the SIRT1 enzyme were conducted in duplicate at 37° C. for 30 minutes in a 50 μl mixture containing SIRT assay buffer, 5 μg BSA, an HDAC substrate (see 2.3.1), a SIRT enzyme, and a test compound. After enzymatic reactions, 50 μl of 2× SIRT Developer was added to each well for the SIRT enzymes and the plate was incubated at room temperature for an additional 15 minutes. Fluorescence intensity was measured at an excitation of 360 nm and an emission of 460 nm using a Tecan Infinite M1000 microplate reader.
Data Analysis: SIRT activity assays were performed in duplicates at each concentration. […] In the absence of the compound, the fluorescent intensity (Ft) in each data set was defined as 100% activity. In the absence of SIRT, the fluorescent intensity (Fb) in each data set was defined as 0% activity. The percent activity in the presence of each compound was calculated according to the following equation: % activity=(F−Fb)/(Ft−Fb), where F=the fluorescent intensity in the presence of the compound.

human recombinant ARG2 = molecular target: T3, human recombinant ARG2 (Homo sapiens, UniProt P78540); assay: ARG2 enzymatic inhibition assay (thioarginine substrate, UV absorbance 412 nm); format: biochemical
T3 sequence (P78540 23-354): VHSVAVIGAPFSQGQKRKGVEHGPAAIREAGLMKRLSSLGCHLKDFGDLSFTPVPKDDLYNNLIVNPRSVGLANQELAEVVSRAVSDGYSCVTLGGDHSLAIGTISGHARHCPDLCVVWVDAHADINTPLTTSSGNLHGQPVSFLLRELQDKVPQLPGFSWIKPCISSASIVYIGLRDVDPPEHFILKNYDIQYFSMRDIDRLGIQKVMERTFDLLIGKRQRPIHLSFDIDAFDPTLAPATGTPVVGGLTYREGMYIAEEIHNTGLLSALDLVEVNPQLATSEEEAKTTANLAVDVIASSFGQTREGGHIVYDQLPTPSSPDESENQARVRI
Description: (§1) Assay conditions: The assay was performed using human recombinant ARG1 or ARG2 as enzymes and thioarginine as substrate. The UV absorbance at 412 nm was correlated with the amount of reaction product of ARG1/ARG2. […] 5 μl of 20× sample solutions were added to 90 μl of substrate, and reactions were started by the addition of 5 μl of 20× ARG1/ARG2 solutions. For the negative control (Blank), 5 μl of the assay buffer was added instead of the ARG1/ARG2. […] All reactions were conducted at room temperature and incubated for 30 minutes, ensuring that all wells, containing either samples or controls, contained 0.7% (v/v) EtOH final concentration to discard any solvent effect. UV absorbance readings were done at times 0 and 30 minutes to get net values. Absorbance was measured using a Tecan Infinite M1000 microplate reader.
(§2) Data Analysis: Experiment was performed in duplicate at each concentration. The data were analyzed using the software GraphPad Prism. In the absence of the compound, the net absorbance (At) in each data set was defined as 100% activity. In the absence of ARG1/ARG2, the net absorbance (Ab) in each data set was defined as 0% activity. The percent activity in the presence of each compound was calculated according to the following equation: % activity=[(A−Ab)/(At−Ab)]×100, where A=the absorbance in the presence of the compound.

human recombinant ARG1 = molecular target: T4, human recombinant ARG1 (Homo sapiens, UniProt P05089); assay: ARG1 enzymatic inhibition assay (thioarginine substrate, UV absorbance 412 nm); format: biochemical
T4 sequence (P05089 1-322): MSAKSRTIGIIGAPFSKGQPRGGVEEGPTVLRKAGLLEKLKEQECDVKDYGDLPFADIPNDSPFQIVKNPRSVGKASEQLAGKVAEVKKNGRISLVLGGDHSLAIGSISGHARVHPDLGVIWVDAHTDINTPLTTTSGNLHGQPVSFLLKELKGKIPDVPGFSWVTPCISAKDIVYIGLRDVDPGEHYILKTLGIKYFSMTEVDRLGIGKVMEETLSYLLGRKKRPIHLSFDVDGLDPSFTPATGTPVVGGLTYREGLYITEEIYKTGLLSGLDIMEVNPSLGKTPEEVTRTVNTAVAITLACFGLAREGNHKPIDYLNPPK
Description: as §1, §2

[1] = molecular target: T5, recombinant human CD47 (hCD47) with human SIRP-α (Homo sapiens, UniProt Q08722); assay: CD47/SIRP-α in vitro binding assay
T5 construct: purchased 71177 (hCD47, Fc fusion); 71138 (hSIRP-α, Biotin-labeled)
T5 sequence (Q08722 19-141 limits assumed): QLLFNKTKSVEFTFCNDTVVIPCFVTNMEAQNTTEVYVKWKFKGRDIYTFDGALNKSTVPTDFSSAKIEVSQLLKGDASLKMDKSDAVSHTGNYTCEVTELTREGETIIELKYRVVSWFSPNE
Description: Assay Conditions: CD47 was coated using 50 μL at 2 ng/μL at 4° C. overnight. After wash and block steps the test compounds were added to CD47-coated plate followed by addition of SIRP-α-biotin. Reaction was incubated for 2 h at room temperature. Binding was detected using HRP-conjugated Streptavidin.

[2] = read-out: Activity (%) Repeat 1
[3] = read-out: Activity (%) Repeat 2
[4] = test concentration 0.001 μM, read-out: Activity (%) Rep. 1
[5] = test concentration 0.01 μM, read-out: Activity (%) Rep. 1
[6] = test concentration 0.1 μM, read-out: Activity (%) Rep. 1

inhibition at 0.01 µM (recombinant human IDO2): 0%
inhibition at 0.1 µM (recombinant human IDO2): 20%
inhibition at 1 µM (recombinant human IDO2): 60%
Absorbance (net) Repeat 1 (recombinant human IDO2; 0.01 μM): 0.17
Absorbance (net) Repeat 2 (recombinant human IDO2; 0.01 μM): 0.17
Absorbance (net) Repeat 1 (recombinant human IDO2; 0.1 μM): 0.14
Absorbance (net) Repeat 2 (recombinant human IDO2; 0.1 μM): 0.15
Absorbance (net) Repeat 1 (recombinant human IDO2; 1 μM): 0.10
Absorbance (net) Repeat 2 (recombinant human IDO2; 1 μM): 0.11
activity at 0.01 µM (recombinant human IDO2; [2]): 105%
activity at 0.1 µM (recombinant human IDO2; [2]): 75%
activity at 1 µM (recombinant human IDO2; [2]): 35%
activity at 0.01 µM (recombinant human IDO2; [3]): 105%
activity at 0.1 µM (recombinant human IDO2; [3]): 85%
activity at 1 µM (recombinant human IDO2; [3]): 45%
Compound: NS(=O)(=O)NCCNc1nonc1C(=NO)Nc1ccc(F)c(Br)c1 [INCB024360]

Compound: Cc1ccc(C(=O)Nc2ccc(S(=O)(=O)O)c3cc(S(=O)(=O)O)cc(S(=O)(=O)O)c23)cc1NC(=O)c1cccc(NC(=O)Nc2cccc(C(=O)Nc3cc(C(=O)Nc4ccc(S(=O)(=O)O)c5cc(S(=O)(=O)O)cc(S(=O)(=O)O)c45)ccc3C)c2)c1 [Suramin]
inhibition at 0.1 µM (SIRT1): 14%
inhibition at 1 µM (SIRT1): 74%
activity at 0.1 µM (SIRT1; read-out: % Activity Repeat 1): 85%
activity at 1 µM (SIRT1; read-out: % Activity Repeat 1): 26%
activity at 0.1 µM (SIRT1; read-out: % Activity Repeat 2): 86%
activity at 1 µM (SIRT1; read-out: % Activity Repeat 2): 26%
SIRT1 Activity (Fluorescence count) Repeat 1 (SIRT1; test concentration 0.01 μM): 2415
SIRT1 Activity (Fluorescence count) Repeat 2 (SIRT1; test concentration 0.01 μM): 2415
inhibition at 0.01 µM (SIRT1; test concentration 0.01 μM): 0%
activity at 0.01 µM (SIRT1; test concentration 0.01 μM, read-out: % Activity Repeat 1): 100%
activity at 0.01 µM (SIRT1; test concentration 0.01 μM, read-out: % Activity Repeat 2): 100%
SIRT1 Activity (Fluorescence count) Repeat 1 (SIRT1; test concentration 0.1 μM): 2074
SIRT1 Activity (Fluorescence count) Repeat 2 (SIRT1; test concentration 0.1 μM): 2082
SIRT1 Activity (Fluorescence count) Repeat 1 (SIRT1; test concentration 1 μM): 710
SIRT1 Activity (Fluorescence count) Repeat 2 (SIRT1; test concentration 1 μM): 702

Net absorbance Rep. 1 (human recombinant ARG2; test concentration 0.001 μM): 0.78
Net absorbance Rep. 2 (human recombinant ARG2; test concentration 0.001 μM): 0.82
inhibition at 0.001 µM (human recombinant ARG2; test concentration 0.001 μM, read-out: ARG-2 Inhibition (%)): 17%
activity at 0.001 µM (human recombinant ARG2; [4]): 81%
activity at 0.001 µM (human recombinant ARG2; test concentration 0.001 μM, read-out: Activity (%) Rep. 2): 84%
Net absorbance Rep. 1 (human recombinant ARG2; test concentration 0.01 μM): 0.56
Net absorbance Rep. 2 (human recombinant ARG2; test concentration 0.01 μM): 0.60
inhibition at 0.01 µM (human recombinant ARG2; test concentration 0.01 μM, read-out: ARG-2 Inhibition (%)): 41%
activity at 0.01 µM (human recombinant ARG2; [5]): 57%
activity at 0.01 µM (human recombinant ARG2; test concentration 0.01 μM, read-out: Activity (%) Rep. 2): 62%
Net absorbance Rep. 1 (human recombinant ARG2; test concentration 0.1 μM): 0.19
Net absorbance Rep. 2 (human recombinant ARG2; test concentration 0.1 μM): 0.19
inhibition at 0.1 µM (human recombinant ARG2; test concentration 0.1 μM, read-out: ARG-2 Inhibition (%)): 81%
activity at 0.1 µM (human recombinant ARG2; [6]): 19%
activity at 0.1 µM (human recombinant ARG2; test concentration 0.1 μM, read-out: Activity (%) Rep. 2): 19%
Net absorbance Rep. 1 (human recombinant ARG1; test concentration 0.001 μM): 0.74
Net absorbance Rep. 2 (human recombinant ARG1; test concentration 0.001 μM): 0.77
inhibition at 0.001 µM (human recombinant ARG1; test concentration 0.001 μM, read-out: ARG-1 Inhibition (%)): 0%
activity at 0.001 µM (human recombinant ARG1; [4]): 99%
activity at 0.001 µM (human recombinant ARG1; test concentration 0.001 μM, read-out: Activity (%) Rep.2): 102%
Net absorbance Rep. 1 (human recombinant ARG1; test concentration 0.01 μM): 0.59
Net absorbance Rep. 2 (human recombinant ARG1; test concentration 0.01 μM): 0.59
inhibition at 0.01 µM (human recombinant ARG1; test concentration 0.01 μM, read-out: ARG-1 Inhibition (%)): 22%
activity at 0.01 µM (human recombinant ARG1; [5]): 79%
activity at 0.01 µM (human recombinant ARG1; test concentration 0.01 μM, read-out: Activity (%) Rep.2): 78%
Net absorbance Rep. 1 (human recombinant ARG1; test concentration 0.1 μM): 0.23
Net absorbance Rep. 2 (human recombinant ARG1; test concentration 0.1 μM): 0.24
inhibition at 0.1 µM (human recombinant ARG1; test concentration 0.1 μM, read-out: ARG-1 Inhibition (%)): 69%
activity at 0.1 µM (human recombinant ARG1; [6]): 31%
activity at 0.1 µM (human recombinant ARG1; test concentration 0.1 μM, read-out: Activity (%) Rep.2): 31%
Compound: N=C(NO)NCC[C@H](N)C(=O)O [nor-NOHA]

Compound: SIRP-α
Activity (%) Repeat 1 ([1]; 0.05 μM): 93%
Activity (%) Repeat 2 ([1]; 0.05 μM): 97%
Inhibition (%) ([1]; 0.05 μM): 5%
Luminescence Repeat 1 ([1]; 0.05 μM): 35347
Luminescence Repeat 2 ([1]; 0.05 μM): 36581
Activity (%) Repeat 1 ([1]; 0.5 μM): 52%
Activity (%) Repeat 2 ([1]; 0.5 μM): 51%
Inhibition (%) ([1]; 0.5 μM): 49%
Luminescence Repeat 1 ([1]; 0.5 μM): 19746
Luminescence Repeat 2 ([1]; 0.5 μM): 19259
Activity (%) Repeat 1 ([1]; 5 μM): 14%
Activity (%) Repeat 2 ([1]; 5 μM): 18%
Inhibition (%) ([1]; 5 μM): 84%
Luminescence Repeat 1 ([1]; 5 μM): 5310
Luminescence Repeat 2 ([1]; 5 μM): 6891
